Test results from PubChem BioAssay (NCI).
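Exposure lasted 48 hours, with cells grown in 96-well plates and compounds tested at five concentrations. GI50 marks 50% less growth. TGI marks complete inhibition of growth.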

Tests used:
Assay in all cases: DTP human tumour cell line panel, 48 h
786-0 renal = tested on: 786-0 renal
A498 renal = tested on: A498 renal
A549 NSCLC = tested on: A549 NSCLC
ACHN renal = tested on: ACHN renal
BT-549 breast = tested on: BT-549 breast
CAKI-1 renal = tested on: CAKI-1 renal
CCRF-CEM leukemia = tested on: CCRF-CEM leukemia
COLO 205 colon = tested on: COLO 205 colon
DU-145 prostate = tested on: DU-145 prostate
EKVX NSCLC = tested on: EKVX NSCLC
HCC-2998 colon = tested on: HCC-2998 colon
HCT-116 colon = tested on: HCT-116 colon
HCT-15 colon = tested on: HCT-15 colon
HL-60(TB) leukemia = tested on: HL-60(TB) leukemia
HOP-62 NSCLC = tested on: HOP-62 NSCLC
HOP-92 NSCLC = tested on: HOP-92 NSCLC
HS 578T breast = tested on: HS 578T breast
HT29 colon = tested on: HT29 colon
IGROV1 ovarian = tested on: IGROV1 ovarian
K-562 leukemia = tested on: K-562 leukemia
KM12 colon = tested on: KM12 colon
LOX IMVI melanoma = tested on: LOX IMVI melanoma
M14 melanoma = tested on: M14 melanoma
MALME-3M melanoma = tested on: MALME-3M melanoma
MCF7 breast = tested on: MCF7 breast
MDA-MB-231 breast = tested on: MDA-MB-231 breast
MDA-MB-435 = tested on: MDA-MB-435
MOLT-4 leukemia = tested on: MOLT-4 leukemia
NCI-H226 lung = tested on: NCI-H226 lung
NCI-H23 lung = tested on: NCI-H23 lung
NCI-H460 lung = tested on: NCI-H460 lung
NCI-H522 lung = tested on: NCI-H522 lung
NCI/ADR-RES ovarian = tested on: NCI/ADR-RES ovarian
OVCAR-4 ovarian = tested on: OVCAR-4 ovarian
OVCAR-5 ovarian = tested on: OVCAR-5 ovarian
OVCAR-8 ovarian = tested on: OVCAR-8 ovarian
PC-3 prostate = tested on: PC-3 prostate
RPMI-8226 leukemia = tested on: RPMI-8226 leukemia
RXF 393 renal = tested on: RXF 393 renal
SF-268 CNS = tested on: SF-268 CNS
SF-295 CNS = tested on: SF-295 CNS
SF-539 CNS = tested on: SF-539 CNS
SK-MEL-2 melanoma = tested on: SK-MEL-2 melanoma
SK-MEL-28 melanoma = tested on: SK-MEL-28 melanoma
SK-MEL-5 melanoma = tested on: SK-MEL-5 melanoma
SK-OV-3 ovarian = tested on: SK-OV-3 ovarian
SN12C renal = tested on: SN12C renal
SNB-19 CNS = tested on: SNB-19 CNS
SNB-75 CNS = tested on: SNB-75 CNS
SR leukemia = tested on: SR leukemia
SW-620 colon = tested on: SW-620 colon
T-47D breast = tested on: T-47D breast
TK-10 renal = tested on: TK-10 renal
U251 CNS = tested on: U251 CNS
UACC-257 melanoma = tested on: UACC-257 melanoma
UACC-62 melanoma = tested on: UACC-62 melanoma
UO-31 renal = tested on: UO-31 renal
OVCAR-3 ovarian = tested on: OVCAR-3 ovarian

## O=C(NNc1nc2cc(F)ccc2n2c(CO)ccc12)c1cnccn1
786-0 renal
  GI50: 387 nM
  TGI: 11900 nM
A498 renal
  GI50: 1160 nM
  TGI: 4990 nM
A549 NSCLC
  GI50: 471 nM
  TGI: > 55800 nM
ACHN renal
  GI50: 111 nM
  TGI: 12200 nM
BT-549 breast
  GI50: 667 nM
CAKI-1 renal
  GI50: 281 nM
  TGI: > 100000 nM
CCRF-CEM leukemia
  GI50: 395 nM
  TGI: > 60400 nM
COLO 205 colon
  GI50: 368 nM
  TGI: > 38500 nM
DU-145 prostate
  GI50: 780 nM
  TGI: > 100000 nM
EKVX NSCLC
  GI50: 408 nM
  TGI: > 57200 nM
HCC-2998 colon
  GI50: 568 nM
  TGI: > 100000 nM
HCT-116 colon
  GI50: 345 nM
  TGI: > 42900 nM
HCT-15 colon
  GI50: 69.1 nM
  TGI: > 45700 nM
HL-60(TB) leukemia
  GI50: 435 nM
  TGI: > 38000 nM
HOP-62 NSCLC
  GI50: 344 nM
  TGI: > 32800 nM
HOP-92 NSCLC
  GI50: 1400 nM
  TGI: 63800 nM
HS 578T breast
  GI50: 4310 nM
  TGI: > 100000 nM
HT29 colon
  GI50: 552 nM
  TGI: > 100000 nM
IGROV1 ovarian
  GI50: 509 nM
  TGI: 29500 nM
K-562 leukemia
  GI50: 508 nM
  TGI: > 100000 nM
KM12 colon
  GI50: 432 nM
  TGI: > 100000 nM
LOX IMVI melanoma
  GI50: 317 nM
  TGI: 4080 nM
M14 melanoma
  GI50: 292 nM
  TGI: 4050 nM
MALME-3M melanoma
  GI50: 1070 nM
  TGI: 20200 nM
MCF7 breast
  GI50: 541 nM
  TGI: 36000 nM
MDA-MB-231 breast
  GI50: 633 nM
  TGI: > 100000 nM
MDA-MB-435
  GI50: 712 nM
  TGI: > 100000 nM
MOLT-4 leukemia
  GI50: 407 nM
  TGI: > 100000 nM
NCI-H226 lung
  GI50: 367 nM
  TGI: 10800 nM
NCI-H23 lung
  GI50: 895 nM
  TGI: > 100000 nM
NCI-H460 lung
  GI50: 245 nM
  TGI: 11000 nM
NCI-H522 lung
  GI50: 1010 nM
  TGI: 8070 nM
NCI/ADR-RES ovarian
  GI50: 243 nM
  TGI: > 24900 nM
OVCAR-4 ovarian
  GI50: 534 nM
  TGI: > 83100 nM
OVCAR-5 ovarian
  GI50: 1360 nM
  TGI: > 100000 nM
OVCAR-8 ovarian
  GI50: 343 nM
  TGI: > 31900 nM
PC-3 prostate
  GI50: 780 nM
  TGI: > 100000 nM
RPMI-8226 leukemia
  GI50: 721 nM
  TGI: > 57600 nM
RXF 393 renal
  GI50: 557 nM
  TGI: 10000 nM
SF-268 CNS
  GI50: 516 nM
  TGI: > 100000 nM
SF-295 CNS
  GI50: 295 nM
  TGI: > 100000 nM
SF-539 CNS
  GI50: 489 nM
  TGI: > 100000 nM
SK-MEL-2 melanoma
  GI50: 1900 nM
  TGI: 56400 nM
SK-MEL-28 melanoma
  GI50: 595 nM
  TGI: > 100000 nM
SK-MEL-5 melanoma
  GI50: 481 nM
  TGI: 3610 nM
SK-OV-3 ovarian
  GI50: 543 nM
  TGI: 18200 nM
SN12C renal
  GI50: 704 nM
  TGI: > 100000 nM
SNB-19 CNS
  GI50: 665 nM
  TGI: > 100000 nM
SNB-75 CNS
  GI50: 986 nM
  TGI: 27300 nM
SR leukemia
  GI50: 448 nM
  TGI: > 100000 nM
SW-620 colon
  GI50: 649 nM
  TGI: > 100000 nM
T-47D breast
  GI50: 837 nM
  TGI: > 52600 nM
TK-10 renal
  GI50: 504 nM
  TGI: > 100000 nM
U251 CNS
  GI50: 390 nM
  TGI: > 100000 nM
UACC-257 melanoma
  GI50: 1160 nM
  TGI: 6050 nM
UACC-62 melanoma
  GI50: 481 nM
  TGI: 11200 nM
UO-31 renal
  GI50: 68.9 nM
  TGI: 5050 nM

## C#C[C@]1(O)CC[C@H]2[C@@H]3CC=C4c5sc(Nc6ccncc6)nc5CC[C@]4(C)[C@H]3CC[C@@]21C
786-0 renal
  GI50: 120 nM
  TGI: 648 nM
A498 renal
  GI50: 204 nM
  TGI: 517 nM
A549 NSCLC
  GI50: 372 nM
  TGI: 1820 nM
ACHN renal
  GI50: 484 nM
  TGI: 1940 nM
BT-549 breast
  GI50: 330 nM
  TGI: 1620 nM
CAKI-1 renal
  GI50: 345 nM
  TGI: 1560 nM
CCRF-CEM leukemia
  GI50: 257 nM
  TGI: 3750 nM
COLO 205 colon
  GI50: 227 nM
  TGI: 494 nM
DU-145 prostate
  GI50: 1050 nM
  TGI: 3620 nM
EKVX NSCLC
  GI50: 552 nM
  TGI: 3160 nM
HCC-2998 colon
  GI50: 1480 nM
  TGI: 2930 nM
HCT-116 colon
  GI50: 309 nM
  TGI: 1200 nM
HCT-15 colon
  GI50: 261 nM
  TGI: 1190 nM
HL-60(TB) leukemia
  GI50: 153 nM
  TGI: 1390 nM
HOP-62 NSCLC
  GI50: 266 nM
  TGI: 1150 nM
HOP-92 NSCLC
  GI50: 312 nM
  TGI: 1330 nM
HS 578T breast
  GI50: 64.5 nM
  TGI: 580 nM
HT29 colon
  GI50: 308 nM
  TGI: 1290 nM
IGROV1 ovarian
  GI50: 531 nM
  TGI: 2050 nM
K-562 leukemia
  GI50: 247 nM
  TGI: 811 nM
KM12 colon
  GI50: 387 nM
  TGI: 1780 nM
LOX IMVI melanoma
  GI50: 200 nM
  TGI: 476 nM
M14 melanoma
  GI50: 182 nM
  TGI: 398 nM
MALME-3M melanoma
  GI50: 266 nM
  TGI: 994 nM
MCF7 breast
  GI50: 232 nM
  TGI: 1380 nM
MDA-MB-231 breast
  GI50: 942 nM
  TGI: 3280 nM
MDA-MB-435
  GI50: 293 nM
  TGI: 1050 nM
MOLT-4 leukemia
  GI50: 216 nM
  TGI: 997 nM
NCI-H226 lung
  GI50: 1620 nM
  TGI: 22500 nM
NCI-H23 lung
  GI50: 657 nM
  TGI: 2520 nM
NCI-H460 lung
  GI50: 372 nM
  TGI: 1400 nM
NCI-H522 lung
  GI50: 740 nM
  TGI: 2220 nM
NCI/ADR-RES ovarian
  GI50: 1260 nM
  TGI: 4480 nM
OVCAR-3 ovarian
  GI50: 1480 nM
  TGI: 3660 nM
OVCAR-4 ovarian
  GI50: 1360 nM
  TGI: 3190 nM
OVCAR-5 ovarian
  GI50: 1060 nM
  TGI: 3130 nM
OVCAR-8 ovarian
  GI50: 987 nM
  TGI: 2780 nM
PC-3 prostate
  GI50: 243 nM
  TGI: 1350 nM
RPMI-8226 leukemia
  GI50: 42 nM
  TGI: 250 nM
RXF 393 renal
  GI50: 25.1 nM
  TGI: 110 nM
SF-268 CNS
  GI50: 445 nM
  TGI: 2850 nM
SF-295 CNS
  GI50: 91.2 nM
  TGI: 311 nM
SF-539 CNS
  GI50: 108 nM
  TGI: 318 nM
SK-MEL-2 melanoma
  GI50: 342 nM
  TGI: 1320 nM
SK-MEL-28 melanoma
  GI50: 148 nM
  TGI: 394 nM
SK-MEL-5 melanoma
  GI50: 467 nM
  TGI: 1570 nM
SK-OV-3 ovarian
  GI50: 268 nM
  TGI: 780 nM
SN12C renal
  GI50: 745 nM
  TGI: 2110 nM
SNB-19 CNS
  GI50: 305 nM
  TGI: 4640 nM
SNB-75 CNS
  GI50: 191 nM
  TGI: 1930 nM
SR leukemia
  GI50: 47.2 nM
  TGI: 483 nM
SW-620 colon
  GI50: 284 nM
  TGI: 901 nM
T-47D breast
  GI50: 973 nM
  TGI: 3990 nM
TK-10 renal
  GI50: 1010 nM
  TGI: 2460 nM
U251 CNS
  GI50: 103 nM
  TGI: 1160 nM
UACC-257 melanoma
  GI50: 193 nM
  TGI: 416 nM
UACC-62 melanoma
  GI50: 223 nM
  TGI: 595 nM
UO-31 renal
  GI50: 227 nM
  TGI: 822 nM
